{"source": "paper PMC7395062", "about": "“Multiparametric assessment of mitochondrial respiratory inhibition in HepG2 and RPTEC/TERT1 cells using a panel of mitochondrial targeting agrochemicals” (Archives of Toxicology, 2020)", "key": {"RPTEC/TERT1 cells [1]": {"test_system": "RPTEC/TERT1 cells", "test": "Mitochondrial membrane potential (MMP) assay with JC-1", "format": "cell-based, human", "settings": "RPTEC/TERT1, JC-1, 24 h", "description": "JC-1 is a single-excitation dual-emission fluorescence-based assay that allows for ratiometric semiquantitative assessment of mitochondrial membrane potential (Perry et al. [2011]). For quantification of changes in MMP cells were pre-loaded, for approximately 1.5 h, with the JC-1 pre-loading solution containing 9 µM JC-1 (Invitrogen, 65-0851-38), 9 µL/mL Pluronic F-127 10% in water (Invitrogen, P6866) and 5 µM Cyclosporine A (CsA) (Merck, 30024), a P-glycoprotein (P-gp) inhibitor, to prevent dye extrusion due to the expression of efflux pumps in RPTEC/TERT1 cell line. After this incubation time, cells were washed and exposed to test compounds dissolved in a JC-1 treatment solution containing 0.5 µM JC-1, 1.5 µL/mL Pluronic F-127 and 1 µM CsA for the desired time. We have previously determined that CsA at up to 5 µM has no adverse effect on RPTEC/TERT1 cells for up to 14 days (Wilmes et al. [2013]). Fluorescence was measured in a plate reader at excitation 492 nm and dual emission, 535 nm for monomers and 590 nm for dimers. Results are presented as the dimer/monomer ratio and expressed as percentage of untreated samples.\n(§1) All results are average of 2–3 independent experiments. […] Leist, University of Konstanz (Krebs et al. [2020])."}, "HepG2 cells [2]": {"test_system": "HepG2 cells", "test": "Mitochondrial membrane potential (Rho123) live confocal imaging", "format": "cell-based, human", "settings": "HepG2, Rho123, 24 h", "description": "Rhodamine 123 (Rho123) (Merck, R8004) was used in a live confocal imaging setting for the assessment of effects at MMP. Rho123 localises to mitochondria and the decline in fluorescence is proportional to a decrease in MMP (Johnson et al. [1980], [1981]). HepG2 were seeded at 10,000 cells/30 μL/well in a 384-wells μCLEAR® black plate (Greiner Bio-One, 781 091). Two days post-seeding, 30 μL complete HepG2 culture medium, containing 200 ng/μL Hoechst 33342 (Life technologies, H1399) and 1 μM Rho123, was added to the medium. After 1 h incubation at 37° C, the medium was removed and 25 μL complete DMEM containing 0.2 μM Rho123 and 100 nM propidium iodide (PI) (Merck, P4170) was added, followed by 25 μL of medium containing 2×, the desired concentration of test compound. The intensity of Hoechst, Rho123 and PI, was monitored using live confocal imaging for 24 h using the 408, 488 and 561 nm laser, respectively. The confocal imaging was performed using a Nikon TiE2000 with perfect focus system and xy-stage (Nikon, Amsterdam, The Netherlands). Quantification of the Hoechst, Rho123 and PI signal intensity and localization were performed using CellProfiler version 2.1.1 (Broad Institute, Cambridge, USA). The nuclear identification based on the Hoechst signal was performed using an internally created segmentation module (Di et al. [2012]), followed by a cytoplasmic identification based on a specific distance from these nuclei. The PI-positive nuclei were identified by masking the previous segmented nuclei and the PI signal. More than 10% overlap was considered as PI positive. All CellProfiler analyses were stored as HDF5 files. The combination of an internally developed R script, run in Rstudio (Boston, USA), was used for data extraction including Rho123 signal intensity, fraction PI positive and nuclear count.\nas §1"}, "HepG2 cells [3]": {"test_system": "HepG2 cells", "test": "Resazurin reduction viability assay, 2D HepG2", "format": "cell-based, human", "settings": "HepG2, galactose", "description": "The HepG2 cell line, a human hepatocellular carcinoma, was obtained from ATCC (American Type Culture Collection, Wesel, Germany). […] Cells were maintained at 37 °C in a 5% CO2 humidified atmosphere, fed every 2 to 3 days and passaged at approximately 80% confluence. […] For galactose experiments, the medium was refreshed 24 h before exposure with galactose-containing medium. […] Culture medium was refreshed every 3–4 days and the culture was maintained for 21 days prior to dosing.\n(§2) The conversion of resazurin to fluorescent resorufin was measured in a plate reader at excitation/emission 540/590 nm.\n(§3) All results are average of 2–3 independent experiments."}, "RPTEC/TERT1 cells [4]": {"test_system": "RPTEC/TERT1 cells", "test": "Seahorse mitostress assay in intact cells (OCR/ECAR), RPTEC/TERT1", "format": "cell-based, human", "description": "The Seahorse bioanalyzer simultaneously measures cellular oxygen consumption rates (OCR) and extracellular acidification rates (ECAR). The mitostress assay utilises a sequential addition of modulators of the oxidative phosphorylation to assess key parameters of mitochondrial function. […] It is worth noting here that RPTEC/TERT1 require longer differentiation time in the Seahorse plates, potentially due to sub-optimum gas exchange in the Seahorse culture plates. HepG2 cells were cultured at the density of 15,000 cells/well on collagen-coated (2.5 µg/µL collagen IV, Merck, C7521) Seahorse cell culture microplates two days prior to analysis.\nThe mitostress test was performed as described (Eakins et al. [2016]; Tilmant et al. [2018]). Immediately before the assay, cell culture medium was replaced with 180 µL of Seahorse XF Base Medium without phenol red (Agilent, 1003335-100), supplemented with 10 mM D-glucose (Merck, G7021), 5 mM HEPES (Merck, H4034), 2 mM sodium pyruvate (Merck, P5281) and 1 mM L-glutamine (Merck, G8540). Cells were allowed to equilibrate for 45 min in a non-CO2 37 °C incubator. […] OCR was measured five times after test compound injection and three times for all injections. Each measurement consisted of a 3 min mix and subsequent 3 min read cycle. […]"}, "[5]": {"test_system": "CII/CIII (succinate dehydrogenase / cytochrome bc1 complex)", "format": "cell-based, human", "settings": "permeabilised HepG2; sequential substrates/inhibitors", "description": "The test compound is injected and OCR is measured. […] OCR is measured for the second time. […] A third and final OCR measurement is conducted.\nCompounds were injected sequentially and OCR was measured twice. […] ETC inhibition is determined in decreased OCR.\nas §3"}, "HepG2 cells [6]": {"test_system": "HepG2 cells", "test": "Seahorse mitostress assay in intact cells (OCR/ECAR), HepG2", "settings": "seen at 2 and 10 µM"}, "RPTEC/TERT1 cells [7]": {"test_system": "RPTEC/TERT1 cells", "test": "Resazurin reduction viability assay, RPTEC/TERT1", "format": "cell-based, human", "description": "These cells were obtained under licence from Evercyte GmBH, Vienna Austria. […] For experiments, cells were plated in a required format plate, allowed to become contact-inhibited and fed 24 h prior to treatment exposure. For experiments in galactose condition, cells were fed 24 h prior to experiment with culture medium (custom made DMEM/F12, PromoCell) in which 5 mM glucose was replaced with 5 mM galactose (Merck, G5388).\nas §2, §3"}, "HepG2 cells [8]": {"test_system": "HepG2 cells", "test": "Cell death (PI staining) in 2D HepG2 by live confocal imaging", "format": "cell-based, human", "description": "After 1 h incubation at 37° C, the medium was removed and 25 μL complete DMEM containing 0.2 μM Rho123 and 100 nM propidium iodide (PI) (Merck, P4170) was added, followed by 25 μL of medium containing 2×, the desired concentration of test compound. […] The confocal imaging was performed using a Nikon TiE2000 with perfect focus system and xy-stage (Nikon, Amsterdam, The Netherlands). Quantification of the Hoechst, Rho123 and PI signal intensity and localization were performed using CellProfiler version 2.1.1 (Broad Institute, Cambridge, USA). […] The PI-positive nuclei were identified by masking the previous segmented nuclei and the PI signal. More than 10% overlap was considered as PI positive. All CellProfiler analyses were stored as HDF5 files. The combination of an internally developed R script, run in Rstudio (Boston, USA), was used for data extraction including Rho123 signal intensity, fraction PI positive and nuclear count.\nas §3"}}, "note": "Where two headings read alike, the source gives them in different places.", "data": [{"compound": "Cc1ccccc1C(=O)Nc1cccc(OC(C)C)c1", "note": "[Mepronil]", "values": [{"measurement": "Effect on MMP", "setting": "RPTEC/TERT1 cells [1]", "value": "actually increased it"}, {"measurement": "Effect on MMP", "setting": "HepG2 cells [2]", "value": "decreased MMP, but only at the highest concentrations"}]}, {"compound": "CC(C)Oc1cccc(NC(=O)c2ccccc2C(F)(F)F)c1", "note": "[Flutolanil]", "values": [{"measurement": "Effect on MMP", "setting": "RPTEC/TERT1 cells [1]", "value": "actually increased it"}, {"measurement": "Effect on MMP", "setting": "HepG2 cells [2]", "value": "decreased MMP, but only at the highest concentrations"}]}, {"compound": "Cc1ccc(-c2c(Cl)nc(C#N)n2S(=O)(=O)N(C)C)cc1", "note": "[Cyazofamid]", "values": [{"measurement": "Statistical significance, Viability Galactose settings Resazurin", "setting": "HepG2 cells [3]; h = 10 µM", "value": "* (*p < 0.05 (Tables 3, 4))"}, {"measurement": "Uncoupling effect in mitostress OCR", "setting": "RPTEC/TERT1 cells [4]; RPTEC/TERT1, seen at 2 and 10 µM", "value": "strong uncoupling effect"}, {"measurement": "ETC-complex specificity pattern (CII/CIII)", "setting": "[5]", "value": "CII inhibition pattern but only at 100 µM"}, {"measurement": "Uncoupling effect in mitostress OCR", "setting": "HepG2 cells [6]", "value": "strong uncoupling effect"}]}, {"compound": "Cc1nn(C)c(Oc2ccccc2)c1C=NOCc1ccc(C(=O)OC(C)(C)C)cc1", "note": "[Fenpyroximate]", "values": [{"measurement": "Statistical significance, Viability Glucose settings Resazurin", "setting": "RPTEC/TERT1 cells [7]", "value": "* (*p < 0.05 (Tables 3, 4))"}, {"measurement": "Statistical significance, Viability Galactose settings Resazurin", "setting": "RPTEC/TERT1 cells [7]; RPTEC/TERT1, e = 0.08 µM", "value": "* (*p < 0.05 (Tables 3, 4))"}, {"measurement": "Statistical significance, Viability Galactose settings Resazurin", "setting": "RPTEC/TERT1 cells [7]; RPTEC/TERT1, g = 7 µM", "value": "* (*p < 0.05 (Tables 3, 4))"}, {"measurement": "Statistical significance, Viability Galactose settings Resazurin", "setting": "RPTEC/TERT1 cells [7]; RPTEC/TERT1, h = 10 µM", "value": "* (*p < 0.05 (Tables 3, 4))"}, {"measurement": "Statistical significance, Viability Glucose settings Resazurin", "setting": "RPTEC/TERT1 cells [7]; RPTEC/TERT1, glucose, g = 7 µM", "value": "* (*p < 0.05 (Tables 3, 4))"}, {"measurement": "Statistical significance, Viability Glucose settings Resazurin", "setting": "RPTEC/TERT1 cells [7]; RPTEC/TERT1, glucose, h = 10 µM", "value": "* (*p < 0.05 (Tables 3, 4))"}, {"measurement": "Statistical significance, Viability Galactose settings Resazurin", "setting": "HepG2 cells [3]; d = 0.016 µM", "value": "* (*p < 0.05 (Tables 3, 4))"}, {"measurement": "Statistical significance, Viability Galactose settings Resazurin", "setting": "HepG2 cells [3]; e = 0.08 µM", "value": "* (*p < 0.05 (Tables 3, 4))"}, {"measurement": "Statistical significance, Viability Galactose settings Resazurin", "setting": "HepG2 cells [3]; g = 7 µM", "value": "* (*p < 0.05 (Tables 3, 4))"}, {"measurement": "Statistical significance, Viability Galactose settings Resazurin", "setting": "HepG2 cells [3]; h = 10 µM", "value": "* (*p < 0.05 (Tables 3, 4))"}, {"measurement": "Statistical significance, Cell death (% 24h) Galactose", "setting": "HepG2 cells [8]", "value": "* (*p < 0.05 (Tables 3, 4))"}]}, {"compound": "Cc1nc(C(F)(F)F)c(C(=O)Nc2c(Br)cc(OC(F)(F)F)cc2Br)s1", "note": "[Thifluzamide]", "values": [{"measurement": "Statistical significance, Viability Galactose settings Resazurin", "setting": "HepG2 cells [3]; h = 10 µM", "value": "* (*p < 0.05 (Tables 3, 4))"}, {"measurement": "Effect on MMP", "setting": "HepG2 cells [2]", "value": "decreased MMP, but only at the highest concentrations"}, {"measurement": "Effect on maximal respiration", "setting": "RPTEC/TERT1 cells [4]; RPTEC/TERT1, higher concentrations", "value": "tendency to increase maximal respiration"}]}]}
